Assay results reported in the NIST ThermoML archive (doi:10.1021/je0342421).
± gives the expanded uncertainty stated by the source.

Details: Liquid

CCOC(C)(C)C [2-ethoxy-2-methylpropane]
Details	vapor or sublimation pressure [kPa]
312.49 K	31.7 ± 0.7
318.55 K	40.2 ± 0.7
323.25 K	47.2 ± 0.8
325.18 K	51.4 ± 0.8
326.6 K	54.1 ± 0.8
329.02 K	59 ± 0.8
331.96 K	65.3 ± 0.9
333.28 K	67.4 ± 0.9
335.92 K	74.8 ± 0.9
338.08 K	80.5 ± 0.9
340.01 K	85.8 ± 1
341.49 K	90.1 ± 1
342.88 K	94.3 ± 1
343.86 K	97 ± 1
345.77 K	102.8 ± 1.1
